These results are taken from article PMC3676400, “3-Oxoacyl-ACP Reductase from Schistosoma japonicum: Integrated In Silico-In Vitro Strategy for Discovering Antischistosomal Lead Compounds” (PLoS ONE, 2013).

Series [1] deals with P. falciparum OAR. Conditions: cited from earlier work.
For series [2], the system named is Escherichia coli OAR. Conditions: E. coli, ref [32], cited from earlier work.
In series [3] the test system is M. tuberculosis OAR. Conditions: cited from earlier work.
The target of series [4] is T1, rSjOAR (Schistosoma japonicum, UniProt Q5DB51). As to the kind of experiment: BIAcore assay of binding to immobilized rSjOAR. As to the method:
The binding capacities of small compounds identified by the virtual screen with rSjOAR were assessed using a BIAcore 3000 instrument (BIAcore AB, Uppsala, Sweden). The recombinant His-tag fusion protein SjOAR was immobilized onto an NTA chip. Compounds were injected at a concentration of 10 µM and a flow rate of 40 µl/min in HBS buffer (0.01 M HEPES, 0.15 M NaCl, 3.0 mM EDTA, 0.005% Tween 20, pH 7.4) containing 1‰ DMSO (Dimethyl sulfoxide). Electrical alterations on the sensor chip were monitored as a resonance signal by using the program supplied by the manufacturer. To further obtain kinetic parameters, a series of compound concentrations (0.5 µM, 1 µM, 2 µM, 5 µM and 10 µM) were measured. Data were analyzed by using the software with which the instrument was equipped.
On the technique in general: SPR reads the build-up and loss of mass on a sensor chip optically.

Series [5] deals with adult worms. As to the kind of experiment: Inhibition studies on cultured adult worms.
For series [6], the target named is T1, rSjOAR. As to the kind of experiment: Effect of active compounds on rSjOAR enzymatic activity. Type of series: biochemical. As to the method:
The Median inhibitory concentration (IC50) was calculated by curve fitting using SPSS18.0 statistical software with a confidence interval of 95%. All assays were carried out in triplicate and repeated three times.

Series [7] relates to adult worms. The arrangement: method as in PMID 19851783. The conditions noted are these: after the drug is removed; ref [30]; cited from earlier work.
Substrate in series [8]: CC(=O)CC(=O)SCCNC(=O)CCNC(=O)[C@H](O)C(C)(C)COP(=O)(O)OP(=O)(O)OC[C@H]1O[C@@H](n2cnc3c(N)ncnc32)[C@H](O)[C@@H]1OP(=O)(O)O
As to the kind of experiment: rSjOAR kinetic analysis (Michaelis constants of substrates). Format: biochemical. The conditions noted are these: other: S. japonicum; pH 6.8; 37.0 °C.

Read-outs that look alike come from different tables or passages of the source.

For `CC(=O)CC(=O)SCCNC(=O)CCNC(=O)[C@H](O)C(C)(C)COP(=O)(O)OP(=O)(O)OC[C@H]1O[C@@H](n2cnc3c(N)ncnc32)[C@H](O)[C@@H]1OP(=O)(O)O` [AcAcCoA, Acetoacetyl-CoA], the Michaelis constant (Km) (commonly the concentration of substrate that gives half-maximal velocity) in series [1] (read-out: Km(app)AcAcCoA, ref [12], [22]) is 510 ± 50 µM; in series [2] (read-out: Km(app)AcAcCoA), 2500 µM; in series [3] (read-out: Km(app)AcAcCoA, M. tuberculosis, ref [17], [20]), 170 ± 20 µM.
As for `O=C(NC1CCN(CCc2c[nH]c3ccccc23)CC1)c1ccccc1` [OAR8], the “Rmax (maximum binding capacity)” value in series [4] (BIAcore) was determined as 57.4. Moreover, in series [4] (BIAcore, five concentrations 0.5-10 µM), the “KA (association constant)” value is 82900 M⁻¹. For the same molecule, the Kd – broadly, the constant that tells how readily two partners part at equilibrium – in series [4] (BIAcore, five concentrations 0.5-10 µM, read-out: KD (dissociation constant)) stood at 12.1 µM. In addition, in series [5] (primary screening, 50 µg/ml, after 48 h), the mortality (usually the share of the test organisms that died) came to 100%.
Take `O=C(C1CCCCC1)N1CC(=O)N2CCc3ccccc3C2C1` (stereo not shown) [PZQ, praziquantel]: the BIAcore response signal result in series [4] (compound 10 µM) is recorded as “only a small signal”. For the same molecule, the “effect on rSjOAR enzymatic activity” value in series [6] was “no significant inhibition”. Further, the “reversibility of effect against schistosomes” value in series [7] was “reversible”. Moreover, in series [5] (PZQ 10 µg/ml, 24 h (Figure 5E)), the “morphological changes, optical microscopy” value is reported as “drastic contractions”. Besides, the mortality at 1.6 µg/mL in series [5] (Schistosoma japonicum, 72 h) is 83.3%.
Regarding NADPH, the Michaelis-Menten constant (Km) was 47.5 ± 4.5 µM in series [1] (read-out: Km(app)NADPH, ref [12], [22]); 21 µM in series [2] (read-out: Km(app)NADPH); 26 ± 3 µM in series [3] (read-out: Km(app)NADPH).

B1: rSjOAR (Schistosoma japonicum) (protein)
chain: MISLSKKVAIVTGASSGIGRATAILFAKLGACVALVARDKSRLQETRQACIQVSHPDVYEKHKEPFLCIEADLGDSHEVEKAYRLALNHFHQLDILVNNAGFMIQDTVETFNIDEYERLMKLNLTAAITLTNLAVPDLTTTKGSIVNVSSVCGERSFPGVMSYCISKAALDQFTKCTALDLASKGIRVNSVNPAVIVTELHKRAGMSEDDYKKFLLKSKESHALGRTGTVEEVAQAIAFLSSSASSFTTGNLLMVDGGRSIMCPR
B1: the Km in series [8] was found to be 550 ± 30 µM.
